Results reported in patent US5294603A, “Pharmaceutical compositions containing didemnins” (The Board of Trustees of The University of Illinois, priority 1992, dated 1994).

Assays:
[1] = system: Visna virus (VIV); format: cell-based; details: Table 9, 0.1 μg/mL
[2] = earlier work, Rinehart et al. 1988; cited from earlier work
[3] = earlier work of Gloer; cited from earlier work
[4] = system: L1210 murine leukemia cells; details: Table 9

CC[C@H](C)[C@@H]1NC(=O)[C@@H](NC(=O)[C@H](CC(C)C)N(C)C(C)=O)[C@H](C)OC(=O)[C@H](Cc2ccc(OC)cc2)N(C)C(=O)[C@@H]2CCCN2C(=O)[C@H](CC(C)C)NC(=O)[C@@H](C)C(=O)[C@H](C(C)C)OC(=O)C[C@@H]1OC(C)=O [Diacetyldidemnin A (32), N,O-Diacetyldidemnin A]
VIV Protection [1]: < 0%
antiviral activity (in vitro) [2]: improvement of the antiviral activity
cytotoxicity compared with Compound 1 [3]: weaker cytotoxicity than Compound 1
Cytotoxicity L1210 IC50 [4]: 0.015 µg/mL
